The assay has as its target T1, SPHK2 (Homo sapiens, UniProt Q9NRA0).
T1 construct: purchased Thermo Fisher Scientific (Life Technologies) SelectScreen
The assay is described as follows: SelectScreen Adapta. It counts as biochemical. The following applies: ATP 10 µM. On the procedure:
The in vitro kinase selectivity of NU5455 was determined using the SelectScreen Broad Assay Panel (Thermo Fisher Scientific) involving activity and binding assays (Supplemental Table 1). […] Class IA PI3Ks were measured using the p85α subunit.
Kinase [ATP] % Assay Kinase [ATP] % Assay Kinase [ATP] % Assay Kinase [ATP] % Assay […]
MAPK14 (p38 alpha) Km app 9.7 Z SPHK2 10 3.1 A ICK n/a 0.0 L SGKL (SGK3) Km app -4.6 Z […]
SGK (SGK1) Km app 8.5 Z MAP4K2 (GCK) Km app 2.7 Z TLK2 n/a -0.3 L STK38 (NDR) n/a -5.9 L
MERTK (cMER) Km app 8.3 Z CDK2/cyclin A Km app 2.7 Z TGFBR1 (ALK5) n/a -0.4 L MATK (HYL) Km app -6.3 Z
FYN Km app 8.3 Z EPHA1 Km app 2.7 Z CLK3 Km app -0.5 Z ABL1 E255K Km app -6.6 Z
TEC n/a 8.1 L CDK2/cyclin E1 n/a 2.7 L MAP3K14 (NIK) n/a -0.5 L STK17A (DRAK1) n/a -6.6 L
KIT V654A n/a 8.1 L TESK2 n/a 2.7 L AKT3 (PKB gamma) Km app -0.5 Z JAK2 JH1 JH2 Km app -6.7 Z
ROS1 Km app 8.0 Z SPHK1 Km app 2.7 A MAP3K9 (MLK1) Km app -0.5 Z PRKACB (PRKAC beta) n/a -6.8 L
FGFR3 K650E Km app 7.9 Z AMPK A2/B1/G1 Km app 2.6 Z IKBKB (IKK beta) Km app -0.6 Z PDGFRA (PDGFR alpha) Km app -6.8 Z
RAF1 (cRAF) Y340D Y341D 100 7.9 Z DYRK3 Km app 2.6 Z CAMK2A (CaMKII alpha) Km app -0.6 Z NEK9 Km app -7.2 Z
PI4KA (PI4K alpha) 10 7.8 A CSNK1D (CK1 delta) Km app 2.6 Z PRKCB1 (PKC beta I) Km app -0.7 Z PDK1 Km app -7.3 Z
HIPK2 Km app 7.8 Z ACVR2A n/a 2.5 L TTK n/a -0.7 L RPS6KB1 (p70S6K) Km app -7.8 Z […]

T1 sequence (Q9NRA0 whole entry): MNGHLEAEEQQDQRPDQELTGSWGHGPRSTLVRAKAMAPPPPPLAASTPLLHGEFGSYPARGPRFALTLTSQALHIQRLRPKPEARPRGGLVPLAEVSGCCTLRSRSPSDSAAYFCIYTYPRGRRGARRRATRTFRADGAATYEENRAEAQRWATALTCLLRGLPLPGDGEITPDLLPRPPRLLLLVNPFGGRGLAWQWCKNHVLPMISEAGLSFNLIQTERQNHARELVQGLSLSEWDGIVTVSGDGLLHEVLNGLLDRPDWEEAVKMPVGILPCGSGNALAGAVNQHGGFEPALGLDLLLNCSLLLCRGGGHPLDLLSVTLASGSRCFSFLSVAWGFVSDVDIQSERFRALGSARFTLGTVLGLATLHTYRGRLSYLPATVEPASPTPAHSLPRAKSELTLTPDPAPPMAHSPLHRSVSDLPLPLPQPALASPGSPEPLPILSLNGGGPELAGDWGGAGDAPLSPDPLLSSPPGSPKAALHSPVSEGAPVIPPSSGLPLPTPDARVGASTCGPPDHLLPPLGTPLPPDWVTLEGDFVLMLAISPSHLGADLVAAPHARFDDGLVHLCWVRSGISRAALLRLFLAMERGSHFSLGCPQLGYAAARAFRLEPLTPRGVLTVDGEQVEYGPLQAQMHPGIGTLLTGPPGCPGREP

The term inhibition denotes the percentage by which the read-out fell short of the control. With `CN(C(=O)CN1CCOCC1)c1ccc2sc3c(-c4cccc5c(=O)cc(N6CC7CCC(C6)O7)oc45)cccc3c2c1` [NU5455], the inhibition at 1 µM was determined as 3.1%.

The values are drawn from article PMC6934184, “Selective DNA-PKcs inhibition extends the therapeutic index of localized radiotherapy and chemotherapy” (The Journal of Clinical Investigation, 2019).
